# Patent publication US10300176B2, “Catheter lock solution formulations” (Medline Industries, Inc., priority 2013, dated 2019)
# Assay: break through pressure or vacuum level after exhaustive drying of lock formulations in simulated silicone catheter tubing
# Type: physicochemical
# Conditions: excipient at approximately 1% by weight
# Description: FIG. 1 is a view of a sphygmomanometer 10 connected to a syringe 12. The sphygmomanometer 10 includes a gauge 14 with a visual display 16 to measure the pressure or vacuum level. The sphygmomanometer 10 and the syringe 12 were used to measure the break through pressure or vacuum level.
# Long silicone rubber commercial catheter extension tubing segments spliced together, or a single small bore with a 1.5 mm inner diameter clear, and very soft laboratory silicone rubber tubing of about 15 inch in length were used for evaluation. Formulations of 30% weight per volume (w/v) ethanol and 4% weight per weight (w/w) tri-sodium citrate with candidate biocompatible excipients were prepared and charged into the lumens of simulated catheter tubings and capped with solid plugs. The samples were first dried near a de-humidifier for about 24 hours to allow evaporation of most ethanol before being placed into a clear polycarbonate drying column connected in series with a large Drierite® desiccant column. The columns were also fitted with a gas flow meter and a diaphragm gas pump to provide closed loop gas circulation at about 4 liter per minute (min-1). […] Both the pressure (+) or vacuum (−) levels to cause the liquid or solid plug movement were measured when subjected to actuation movements from a small air filled syringe 12 connected to a sphygmomanometer 10. […]
smiles,measurement,value
OCC(O)CO [glycerol],effectiveness of excipient in words,conditionally acceptable
same,time free flowing,greater than 7 days
